The text below walks through data of paper PMC4660977 (Molecular pharmaceutics, 2015).

The target in one series is T1, meprin β (Homo sapiens, UniProt Q16820).
T1 sequence (Q16820 62-701): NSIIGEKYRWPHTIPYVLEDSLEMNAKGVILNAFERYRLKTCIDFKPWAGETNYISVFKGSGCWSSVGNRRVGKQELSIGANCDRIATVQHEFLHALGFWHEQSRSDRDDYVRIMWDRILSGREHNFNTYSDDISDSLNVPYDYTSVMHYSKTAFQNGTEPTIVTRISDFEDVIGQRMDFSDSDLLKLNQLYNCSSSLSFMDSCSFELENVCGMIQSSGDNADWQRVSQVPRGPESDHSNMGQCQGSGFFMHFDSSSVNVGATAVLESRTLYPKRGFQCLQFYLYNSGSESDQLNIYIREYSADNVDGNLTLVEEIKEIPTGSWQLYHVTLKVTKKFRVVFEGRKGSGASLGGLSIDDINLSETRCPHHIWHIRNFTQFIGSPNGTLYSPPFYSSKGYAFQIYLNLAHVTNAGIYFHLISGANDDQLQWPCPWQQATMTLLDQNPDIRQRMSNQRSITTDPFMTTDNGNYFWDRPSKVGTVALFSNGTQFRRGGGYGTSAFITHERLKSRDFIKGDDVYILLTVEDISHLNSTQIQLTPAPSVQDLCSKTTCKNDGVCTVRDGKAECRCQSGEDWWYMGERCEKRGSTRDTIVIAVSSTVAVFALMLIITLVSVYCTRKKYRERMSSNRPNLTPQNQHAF
As to the kind of experiment: Meprin β digestion, remaining function at GLP-1R. In kind it is in vitro ADME. As to conditions: meprin β concentrations greater than 3 µg/mL; 30 min, 100 nM; AKAR3 FRET.

A further series addresses GLP-1R (Homo sapiens, UniProt P43220). As to the kind of experiment: GLP-1R agonism, AKAR3 FRET reporter assay in HEK-GLP-1R cells. In kind it is cell-based. As to conditions: undigested.
For series [1], the target named is intrinsic factor (IF) (human) (UniProt P27352). Description: radioligand binding.
Series [2] addresses glucagon-like peptide-1 receptor (GLP-1R) (UniProt P43220).

Chain of GLP-1R (P43220 24-463): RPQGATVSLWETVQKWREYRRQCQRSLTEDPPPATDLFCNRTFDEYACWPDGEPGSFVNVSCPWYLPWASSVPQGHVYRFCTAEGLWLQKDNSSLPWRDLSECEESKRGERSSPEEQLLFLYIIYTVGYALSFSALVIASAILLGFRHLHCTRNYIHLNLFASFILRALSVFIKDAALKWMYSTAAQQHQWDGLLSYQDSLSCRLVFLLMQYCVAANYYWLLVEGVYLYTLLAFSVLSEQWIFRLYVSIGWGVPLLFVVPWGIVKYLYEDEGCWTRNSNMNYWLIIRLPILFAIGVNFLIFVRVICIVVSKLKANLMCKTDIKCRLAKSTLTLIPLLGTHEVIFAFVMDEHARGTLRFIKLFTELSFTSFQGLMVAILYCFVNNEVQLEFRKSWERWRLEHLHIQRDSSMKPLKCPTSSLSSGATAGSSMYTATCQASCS
Chain of glucagon-like peptide-1 receptor (GLP-1R) (P43220 24-463): as above
Chain of intrinsic factor (IF) (human) (P27352 19-417): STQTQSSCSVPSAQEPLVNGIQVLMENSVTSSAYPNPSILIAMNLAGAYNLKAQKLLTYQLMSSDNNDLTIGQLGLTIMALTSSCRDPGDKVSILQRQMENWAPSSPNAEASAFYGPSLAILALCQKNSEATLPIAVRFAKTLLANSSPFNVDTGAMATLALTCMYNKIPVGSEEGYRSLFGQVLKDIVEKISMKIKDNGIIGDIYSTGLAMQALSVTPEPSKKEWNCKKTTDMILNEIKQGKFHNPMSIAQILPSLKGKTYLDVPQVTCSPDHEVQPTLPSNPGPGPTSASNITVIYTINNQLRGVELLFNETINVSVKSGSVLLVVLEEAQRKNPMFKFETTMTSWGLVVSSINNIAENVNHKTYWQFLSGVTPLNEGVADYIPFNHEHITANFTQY

(AzidoK12)-Ex-4 [Compound 1]: the “function after meprin β digestion” value at meprin β is “No function”. In addition, the “% change in FRET at 100 nM” value on GLP-1R was −12 ± 0.01%.
Take “B12-Ex-4 conjugate (4) (from UniProt P26349 48-87) (peptide)”: the IF binding (constant not named) in series [1] was 6.8 nM.
Take “IF-B12-Ex-4 complex (IF-4) (from UniProt P27352 19-417)”: the % change in FRET at 100 nM (AKAR3 in HEK-GLP-1R cells) in series [2] was -12%.
